Like-named read-outs stand apart in the source and are kept apart here.
Key:
B/Lee/40 = experiment: 3-day CP assay in MDCK cells; format: cell-based; conditions: Influenza B virus
A/Nebraska/1/2006 = experiment: 3-day CP assay in MDCK cells; format: cell-based; conditions: Influenza A virus
A/Swine/Iowa/15/30 = experiment: microbe, parasite or virus in culture; format: cell-based, influenza A; conditions: Influenza A virus, MDCK, in Sus scrofa
B/Memphis/20/1996--071 = experiment: 3-day CP assay in MDCK cells; format: cell-based; conditions: Influenza B virus
A/Missouri/3/2006 = experiment: 3-day CP assay in MDCK cells; format: cell-based; conditions: Influenza A virus
A/Henan/Jinshui/147/2007 = experiment: 3-day CP assay in MDCK cells; format: cell-based; conditions: Influenza A virus
A/Mexico/4108/2009 = experiment: 3-day CP assay in MDCK cells; format: cell-based; conditions: Influenza A virus
A/Fukushima/141/2006 = experiment: 3-day CP assay in MDCK cells; format: cell-based; conditions: Influenza A virus
A/Hawaii/2/2006 = experiment: 3-day CP assay in MDCK cells; format: cell-based; conditions: Influenza A virus
B/Russia/69 = experiment: 3-day CP assay in MDCK cells; format: cell-based; conditions: Influenza B virus
A/Virginia/ATCC2/2009 = experiment: 3-day CP assay in MDCK cells; format: cell-based; conditions: Influenza A virus
A/Cambodia0371/2007 = experiment: 3-day CP assay in MDCK cells; format: cell-based; conditions: Influenza A virus
A/Mal/302/54 = experiment: 3-day CP assay in MDCK cells; format: cell-based; conditions: Influenza A virus
A/Equine/Miami/63 = experiment: microbe, parasite or virus in culture; format: cell-based; conditions: Influenza A virus, MDCK
B/Memphis/20/1996--070 = experiment: 3-day CP assay in MDCK cells; format: cell-based; conditions: Influenza B virus
A/Georgia/20/2006 = experiment: 3-day CP assay in MDCK cells; format: cell-based, influenza A; conditions: Influenza A virus, MDCK
A/Denver/1/57 = experiment: 3-day CP assay in MDCK cells; format: cell-based; conditions: Influenza A virus
A/WS/33 = experiment: 3-day CP assay in MDCK cells; format: cell-based; conditions: Influenza A virus
A/South Dakota/6/2007 = experiment: 3-day CP assay in MDCK cells; format: cell-based; conditions: Influenza A virus
A/Uruguay/716/2007 = experiment: 3-day CP assay in MDCK cells; format: cell-based; conditions: Influenza A virus
A/California/07/2009 = experiment: 3-day CP assay in MDCK cells; format: cell-based; conditions: Influenza A virus, MDCK; A/California/07/2009
B/Mass/3/66 = experiment: 3-day CP assay in MDCK cells; format: cell-based; conditions: Influenza B virus
A/Aichi/2/68 = experiment: 3-day CP assay in MDCK cells; format: cell-based; conditions: Influenza A virus
A/Virginia/01/2006 = experiment: 3-day CP assay in MDCK cells; format: cell-based; conditions: Influenza A virus
A/Santiago/7981/2006 = experiment: 3-day CP assay in MDCK cells; format: cell-based; conditions: Influenza A virus
A/Hong Kong/8/68 = experiment: 3-day CP assay in MDCK cells; format: cell-based; conditions: Influenza A virus
A/Port Chalmers/1/73 = experiment: 3-day CP assay in MDCK cells; format: cell-based; conditions: Influenza A virus
A/Wisconsin/67/2005 = experiment: 3-day CP assay in MDCK cells; format: cell-based; conditions: Influenza A virus
A/Weiss/43 = experiment: 3-day CP assay in MDCK cells; format: cell-based; conditions: Influenza A virus
A/New Jersey/8/76 = experiment: microbe, parasite or virus in culture; format: cell-based; conditions: Influenza A virus, MDCK
A/Victoria/3/75 = experiment: 3-day CP assay in MDCK cells; format: cell-based; conditions: Influenza A virus
A/Virginia/ATCC3/2009 = experiment: 3-day CP assay in MDCK cells; format: cell-based; conditions: Influenza A virus
A/St. Petersburg8/2006 = experiment: 3-day CP assay in MDCK cells; format: cell-based; conditions: Influenza A virus
A/Texas/12/2007 = experiment: 3-day CP assay in MDCK cells; format: cell-based; conditions: Influenza A virus
A/NWS/33 = experiment: 3-day CP assay in MDCK cells; format: cell-based, influenza A; conditions: Influenza A virus, MDCK
A/Texas/48/2009 = experiment: 3-day CP assay in MDCK cells; format: cell-based; conditions: Influenza A virus
A/Georgia/17/2006 = experiment: 3-day CP assay in MDCK cells; format: cell-based; conditions: Influenza A virus
A/Chelyabinsk/1/200 = experiment: 3-day CP assay in MDCK cells; format: cell-based; conditions: Influenza A virus
A/Puerto Rico/8/34 = experiment: 3-day CP assay in MDCK cells; format: cell-based; conditions: Influenza A virus
A/FM/1/47 = experiment: 3-day CP assay in MDCK cells; format: cell-based; conditions: Influenza A virus
A/New York/18/2009 = experiment: 3-day CP assay in MDCK cells; format: cell-based; conditions: Influenza A virus
[1] = tested on: A/California/07/2009 NYMC, X-179A; experiment: 3-day CP assay in MDCK cells; format: cell-based; conditions: Influenza A virus
A/Swine/1976/31 = experiment: microbe, parasite or virus in culture; format: cell-based; conditions: Influenza A virus, MDCK, in Sus scrofa
[2] = monkey, 40 mg/kg, pH 8
[3] = rat, 30 mg/kg, pH 8

CCC(CC)O[C@@H]1C=C(C(=O)O)C[C@H](N)[C@H]1NC(C)=O [Oseltamivir Carboxylate]
EC50 (B/Lee/40): > 10 µM
EC50 (A/Nebraska/1/2006): > 10 µM
EC50 (A/Swine/Iowa/15/30): 7.8 µM
EC50 (B/Memphis/20/1996--071): > 10 µM
EC50 (A/Missouri/3/2006): 2.5 µM
EC50 (A/Henan/Jinshui/147/2007): > 10 µM
EC50 (A/Mexico/4108/2009): > 10 µM
EC50 (A/Fukushima/141/2006): 0.58 µM
EC50 (A/Hawaii/2/2006): > 10 µM
EC50 (B/Russia/69): 6 µM
EC50 (A/Virginia/ATCC2/2009): > 10 µM
EC50 (A/Cambodia0371/2007): 7.8 µM
EC50 (A/Mal/302/54): 1.1 µM
EC50 (A/Equine/Miami/63): 0.25 µM
EC50 (B/Memphis/20/1996--070): > 10 µM
EC50 (A/Georgia/20/2006): > 10 µM
EC50 (A/Denver/1/57): > 10 µM
EC50 (A/WS/33): > 10 µM
EC50 (A/South Dakota/6/2007): 8.2 µM
EC50 (A/Uruguay/716/2007): > 10 µM
EC50 (A/California/07/2009): > 10 µM
EC50 (B/Mass/3/66): 6.7 µM
EC50 (A/Aichi/2/68): 5 µM
EC50 (A/Virginia/01/2006): 0.83 µM
EC50 (A/Santiago/7981/2006): > 10 µM
EC50 (A/Hong Kong/8/68): 0.038 µM
EC50 (A/Port Chalmers/1/73): 0.12 µM
EC50 (A/Wisconsin/67/2005): 0.35 µM
EC50 (A/Weiss/43): 0.49 µM
EC50 (A/New Jersey/8/76): 3.8 µM
EC50 (A/Victoria/3/75): > 10 µM
EC50 (A/Virginia/ATCC3/2009): > 10 µM
EC50 (A/St. Petersburg8/2006): 9.3 µM
EC50 (A/Texas/12/2007): 8.5 µM
EC50 (A/NWS/33): > 10 µM
EC50 (A/Texas/48/2009): > 10 µM
EC50 (A/Georgia/17/2006): > 10 µM
EC50 (A/Chelyabinsk/1/200): > 10 µM
EC50 (A/Puerto Rico/8/34): > 10 µM
EC50 (A/FM/1/47): 6.4 µM
EC50 (A/New York/18/2009): 0.16 µM
EC50 [1]: > 10 µM
EC50 (A/Swine/1976/31): 0.56 µM

CC(C)(C)[C@@H](CC(=O)O)Nc1nc(-c2c[nH]c3ncc(F)cc23)ncc1F [Hydrate 2 of Compound (1)]
in vivo exposures (AUC), comparison of formulations [2]: statistically comparable
in vivo exposures (AUC), comparison of formulations [3]: statistically comparable

NC12CC3CC(CC(C3)C1)C2 [Amantadine, amantadine]
EC50 (B/Lee/40): > 10 µM
EC50 (A/Nebraska/1/2006): > 10 µM
EC50 (A/Swine/Iowa/15/30): 0.22 µM
EC50 (A/Missouri/3/2006): 6 µM
EC50 (A/Henan/Jinshui/147/2007): > 10 µM
EC50 (A/Mexico/4108/2009): > 10 µM
EC50 (A/Fukushima/141/2006): 0.46 µM
EC50 (A/Hawaii/2/2006): 9.2 µM
EC50 (B/Russia/69): > 10 µM
EC50 (A/Virginia/ATCC2/2009): > 10 µM
EC50 (A/Cambodia0371/2007): > 10 µM
EC50 (A/Mal/302/54): 2.1 µM
EC50 (A/Equine/Miami/63): 1.75 µM
EC50 (B/Memphis/20/1996--070): > 10 µM
EC50 (A/Georgia/20/2006): > 10 µM
EC50 (A/Denver/1/57): 0.31 µM
EC50 (A/WS/33): > 10 µM
EC50 (A/South Dakota/6/2007): 0.14 µM
EC50 (A/Uruguay/716/2007): > 10 µM
EC50 (A/California/07/2009): > 10 µM
EC50 (A/Aichi/2/68): 6.6 µM
EC50 (A/Virginia/01/2006): > 10 µM
EC50 (A/Santiago/7981/2006): > 10 µM
EC50 (A/Hong Kong/8/68): 3.7 µM
EC50 (A/Port Chalmers/1/73): > 10 µM
EC50 (A/Wisconsin/67/2005): > 10 µM
EC50 (A/Weiss/43): > 10 µM
EC50 (A/New Jersey/8/76): 0.82 µM
EC50 (A/Victoria/3/75): 8.6 µM
EC50 (A/Virginia/ATCC3/2009): > 10 µM
EC50 (A/St. Petersburg8/2006): > 10 µM
EC50 (A/Texas/12/2007): > 10 µM
EC50 (A/NWS/33): > 10 µM
EC50 (A/Texas/48/2009): > 10 µM
EC50 (A/Georgia/17/2006): 0.25 µM
EC50 (A/Chelyabinsk/1/200): > 10 µM
EC50 (A/Puerto Rico/8/34): > 10 µM
EC50 (A/FM/1/47): 0.66 µM
EC50 (A/New York/18/2009): > 10 µM
EC50 [1]: > 10 µM
EC50 (A/Swine/1976/31): 0.078 µM
